For one assay, the target named is T1, 5-lipoxygenase (Cavia porcellus, UniProt A0A286X958).
T1 construct: The 5-LO was concentrated in a known manner from PMNs of male Dunkin-Hartley guinea-pigs; endogenous in cells; host or cells: peritoneal PMNs of male Dunkin-Hartley guinea-pigs, homogenized; 10,000 x g supernatant used as enzyme solution
T1 sequence (A0A286X958 1-674): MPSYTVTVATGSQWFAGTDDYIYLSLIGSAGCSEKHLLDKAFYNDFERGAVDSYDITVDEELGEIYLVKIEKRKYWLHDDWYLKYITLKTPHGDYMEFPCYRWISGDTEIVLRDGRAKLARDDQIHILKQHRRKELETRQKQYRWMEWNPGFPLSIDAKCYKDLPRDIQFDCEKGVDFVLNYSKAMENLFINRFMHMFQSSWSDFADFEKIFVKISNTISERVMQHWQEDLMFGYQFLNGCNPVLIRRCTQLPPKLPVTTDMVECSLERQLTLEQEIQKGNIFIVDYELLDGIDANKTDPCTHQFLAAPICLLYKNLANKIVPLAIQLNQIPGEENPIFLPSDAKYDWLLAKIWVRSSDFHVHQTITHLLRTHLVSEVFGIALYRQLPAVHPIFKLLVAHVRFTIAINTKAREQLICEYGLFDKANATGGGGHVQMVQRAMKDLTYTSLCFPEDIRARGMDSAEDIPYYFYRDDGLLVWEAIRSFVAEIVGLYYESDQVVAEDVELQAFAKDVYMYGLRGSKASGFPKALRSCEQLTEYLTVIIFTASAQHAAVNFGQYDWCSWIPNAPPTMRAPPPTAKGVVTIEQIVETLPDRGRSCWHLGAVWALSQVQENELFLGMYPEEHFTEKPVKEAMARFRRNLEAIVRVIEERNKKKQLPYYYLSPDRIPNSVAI
Kind of assay: inhibitory activity on free 5-lipoxygenase concentrated from peritoneal PMNs of the guinea-pig (5-HETE formation). In kind it is biochemical. Conditions: 10^-5 mole/liter; guinea-pig 5-LO, 37° C.; read-out: In vitro % inhibitory activity on 5-HETE formation caused by free 5-LO. The source says:
4b. In vitro determination of inhibitory activity on 5-lipoxygenase concentrated from peritoneal PMNs of the guinea-pig.
An inhibition of 5-lipoxygenase can be caused by direct inhibitory action of the substances on the enzyme and/or by interference with the activation of the enzyme. While in test 4a the 5-lipoxygenase inhibition of the substances was investigated in rat PMN cells, in test 4b the inhibitory activity of the substances was investigated on free 5-LO concentrated from guinea-pig PMN cells according to the method of D. Aharony et al., J. Biol. Chem. 261 (1986), 11512-11519 (1986).
The 5-LO was concentrated in a known manner from PMNs of male Dunkin-Hartley guinea-pigs (body weight 400 to 500 g) as follows. 10 ml of a solution containing 27.9 g/l of sodium thioglycolate were injected i.p. into the animals in order to induce the PMN invasion as a result of this inflammatory stimulus. After 22 hours, the animals were sacrificed by lethal ether anaesthesia. 70 ml of HBSS without Ca^++ and Mg^++ ions and containing 0.2% by weight of sodium citrate were then injected into the abdominal cavity. The cell suspension (>80% of the cells are PMNs) was withdrawn from the abdominal cavity, filtered through a cheese-making filter cloth, and washed twice with a 50 mM potassium phosphate buffer solution of pH 7.4, which contained 0.5 mM ethylenediaminetetraacetic acid, 1% by weight of gelatine and 20 μM indomethacin. The cells were resuspended, and the PMN suspension containing 10^8 cells/ml was homogenized three times for 15 seconds each in an ice-bath in a homogenizer of the Labsonic™ type set at high speed. The resulting suspension was centrifuged at 4° C. (15 minutes at 10,000×g). The supernatant liquid was used for the investigation as a solution of the free 5-LO enzyme.
The experiments were carried out at 37° C. for 7 minutes using 0.625 ml samples of this enzyme solution. For the experiments, the enzyme solution (=equivalent of 2.5×10^7 cells), 0.5 mM glutathione, 1 mM ATP and 0.3 mM calcium chloride were added to test tubes. […] of the test substance were added to the samples dissolved in sufficient dimethylformamide such that the dimethylformamide concentration in each test tube is 0.5%. Only dimethylformamide was added to the control samples. After 2 minutes, the formation of 5-(S)-hydroxy-6,8,11,14-eicosatetraenoic acid (=[…]) was initiated by addition 10 μM arachidonic acid. After 5 minutes, the reaction was terminated by addition of 0.625 ml of a mixture of methyl acetate/methanol/0.2 m citric acid 15:2:0.5 v/v/v. 5-HETE was extracted twice using this solvent mixture. The 5-HETE-containing phases were combined and evaporated to dryness under a nitrogen atmosphere. The residue was taken up in a mixture of methanol/water/acetic acid 75:21:0.02 v/v/v having a pH of 5.7, and the solution was investigated for its content of 5-HETE by means of reverse phase HPLC. To accomplish this, a […] silanized silica gel column (Hichrom® ODS2, 250×4.6 mm) was employed as the adsorbent and a mixture of methanol/water/acetic acid 75:21:0.02 adjusted to pH 5.7 with ammonia and having a flow rate of 1 ml/min was used as the eluent. 5-HETE, which was eluted as a single peak after 20 minutes, was identified by comparison with standard solutions eluted at the same time and determined using a UV light detector at a wavelength of 235 nm. Quantitative determination was carried out by comparison of the peak area obtained with peak areas occurring in the calibrated standard solutions. From the 5-HETE contents of the samples determined, the inhibitory activity of the test substances was calculated in % inhibition of 5-HETE synthesis in comparison to the control samples containing no test substance.

For assay [1], the system named is P.A.F.-induced aggregation of blood platelets. Kind of assay: anti-P.A.F. action in vitro (P.A.F.-induced platelet aggregation). To be noted: Oryctolagus cuniculus, 10^-5 mole/liter, read-out: Anti-P.A.F. activity in vitro, % inhibition of the P.A.F.-induced aggregation of blood platelets from rabbit blood. In kind it is cell-based. The source says: 3. Determination of the anti-P.A.F. action in vitro.
P.A.F. (=Platelet Activating Factor=Platelet Aggregation Factor) is a phospholipid mediator which has a multiplicity of actions. The activation of blood platelet aggregation results in the induction of long-lasting bronchoconstrictions and hyperreactivity of the respiratory passages.
In this test, the effect of the test substances on platelet aggregation induced by addition of P.A.F. in a platelet suspension obtained from rabbit blood was investigated according to the method described by Mikashima et al. (Jap. J. Pharmacol. 44 (1987) 387-391).
A suspension of platelets obtained from rabbit blood was used which contains 4×10^9 platelets/ml in a modified Tyrode buffer solution (=Tyrode solution with the addition of 1.3 mM/l of CaCl2 and 2.5 g/l of gelatine) adjusted to pH 7.4. Tyrode solution is an aqueous solution containing, per liter, 136.9 mmole of NaCl, 2.68 mmole of KCl, 2.31 mmole of CaCl2, 1.0 mmole of MgCl2, 11.9 mmole of NaHCO3, 1.45 mmole of NaH2 PO4 and 5.55 mmole of glucose. The platelets were concentrated from 10 ml blood samples of three rabbits (New Zealand hybrids, body weight 3-4 kg) in each case. To accomplish this, the blood samples were treated with ethylenediaminetetraacetic acid and washed according to the method of Artley et al. (Brit. J. Haematol. 19 (1970), 7-17). A platelet-rich plasma was first separated by centrifugation (20 minutes at 400×g). The platelets were separated from the plasma by repeated centrifugation for 15 minutes at 1400×g.After the centrifugation, the blood platelets remaining in the sediment were resuspended in a Tyrode buffer solution (but without calcium). 0.4 mmole of lysine acetylsalicylate was then added, and the blood platelets were sedimented again after 15 minutes. The sediment was resuspended in the aforementioned modified Tyrode buffer solution, and the number of platelets in the suspension obtained was adjusted to the desired content.
A 40×10^-9 molar P.A.F. solution was employed as a reagent. This solution was prepared from a 1.8×10^-3 molar stock solution in chloroform. To do this, a 10 μl sample of the stock solution was evaporated to dryness and dissolved again in 180 μl of the modified Tyrode buffer solution, to which 0.25% of lipid-free bovine serum albumin had been added. 10^-5 molar working solutions were then prepared from this and stored frozen. Samples of these solutions were appropriately diluted for tests.
In order to carry out the test, 50 μl of the blood platelet suspension and 10 μl of a 40×10^-5 molar solution of the compound to be investigated were added to […] of the modified Tyrode buffer solution with stirring (1000 rpm) in an aggregation tube provided with a small magnetic stirrer. This corresponded to a final test substance concentration of 10^-5 mole/l. After a preincubation time of 90 seconds, 10 μl of the P.A.F. preparation were added. For 4-5 minutes, the aggregation occurring in the aggregation tube was measured by means of a computerized aggregometer.
The aggregation occurring in the test tubes containing only the platelet suspension is rated as 0%. The aggregation occurring in the test tubes containing platelet suspension and P.A.F. preparation, in which a P.A.F.-induced increase in platelet aggregation takes place, is rated as 100%. The aggregation still occurring after addition of the test substances is measured, and from this the inhibition of the P.A.F.-inducedincrease in aggregation which takes place is calculated in %.

SMILES strings stand for the structures.

This passage reports inhibition results from patent US5474988A, “5-phenylpyrrolo-1,4-benzoxazine and 5-phenylpyrrolo-1,4-benzothiazine compounds, process and intermediates for their production and pharmaceutical compositions containing them” (Kali-Chemie Pharma GmbH, priority 1993, dated 1995).

For the compound `Cc1ccnc(N2CCN(C(=O)CCC3Cn4c(-c5cc(C)c(O)c(C)c5)c(C)c5c(F)ccc(c54)O3)CC2)c1` (centres unmarked) [Example 54], the inhibition at 10 µM on 5-lipoxygenase was 63%; in assay [1], 65%.
`Cc1ccnc(N2CCN(CCCCC3Cn4c(-c5cc(C)c(O)c(C)c5)c(C)c5cccc(c54)O3)CC2)c1` (centres unmarked) [Example 18]: the figures for the inhibition at 10 µM (at 5-lipoxygenase; in assay [1]) were 100% and 78%, respectively.
With `Cc1ccnc(N2CCN(C(=O)CC3Cn4c(-c5ccc(O)cc5)c(C)c5cccc(c54)O3)CC2)c1` (centres unmarked) [Example 17], the inhibition at 10 µM on 5-lipoxygenase worked out at 100%; in assay [1], 99%.
Take `Cc1ccnc(N2CCN(CCC3Cn4c(-c5ccc(O)cc5)c(C)c5c(F)ccc(c54)O3)CC2)c1` (centres unmarked) [Example 22]: the inhibition at 10 µM at 5-lipoxygenase amounted to 97%; in assay [1], 84%.
